# Results reported in patent US10064873B2, “Compounds and compositions for treating HIV with derivatives of Betulin” (GlaxoSmithKline LLC, priority 2011, dated 2018).
# Read-outs that look alike come from different tables or passages of the source.
# Test system: HIV NL4-3 wt
# Assay: MT4 antiviral assay, NL4-3 strain wild type
# Type: cell-based, HIV-1
# [1] = Human immunodeficiency virus 1, NL43, MT4 cells, read-out: EC50 NL4-3 wt
# [2] = Human immunodeficiency virus 1, NL43, MT4, read-out: EC50 NL4-3 wt (nM)
smiles,measurement,setting,value
"CC(C)C1=C2[C@H]3CC[C@@H]4[C@@]5(C)CC[C@H](OC(=O)CC(C)(C)CC(=O)O)C(C)(C)[C@@H]5CC[C@@]4(C)[C@]3(C)CC[C@@]2([C@H](O)CN(CCN(C)C)Cc2ccc(Cl)cc2)CC1=O [Example 23, 5-(((3aR,5aR,5bR,7aR,9S,11aR,11bR,13aS)-3a-((S)-2-((4-Chlorobenzyl)(2-(dimethylamino)ethyl)amino)-1-hydroxyethyl)-1-isopropyl-5a,5b,8,8,11a-pentamethyl-2-oxo-3,3a,4,5,5a,5b,6,7,7a,8,9,10,11,11a,11b,12,13,13a-octadecahydro-2H-cyclopenta[a]chrysen-9-yl)oxy)-3,3-dimethyl-5-oxopentanoic acid]",EC50,[1],4.9 nM
"CC(C)C1=C2[C@H]3CC[C@@H]4[C@@]5(C)CC[C@H](OC(=O)CC(C)(C)C(=O)O)C(C)(C)[C@@H]5CC[C@@]4(C)[C@]3(C)CC[C@@]2([C@H](O)CNCc2ccccc2Cl)CC1=O [Example 24, 4-(((3aR,5aR,5bR,7aR,9S,11aR,11bR,13aS)-3a-((S)-2-((2-Chlorobenzyl)amino)-1-hydroxyethyl)-1-isopropyl-5a,5b,8,8,11a-pentamethyl-2-oxo-3,3a,4,5,5a,5b,6,7,7a,8,9,10,11,11a,11b,12,13,13a-octadecahydro-2H-cyclopenta[a]chrysen-9-yl)oxy)-2,2-dimethyl-4-oxobutanoic acid]",EC50,[1],40.4 nM
"CC(C)C1=C2[C@H]3CC[C@@H]4[C@@]5(C)CC[C@H](OC(=O)CC(C)(C)C(=O)O)C(C)(C)[C@@H]5CC[C@@]4(C)[C@]3(C)CC[C@@]2([C@@H](O)CNCc2ccccc2Cl)CC1=O [Example 25, 4-(((3aR,5aR,5bR,7aR,9S,11aR,11bR,13aS)-3a-((R)-2-((2-chlorobenzyl)amino)-1-hydroxyethyl)-1-isopropyl-5a,5b,8,8,11a-pentamethyl-2-oxo-3,3a,4,5,5a,5b,6,7,7a,8,9,10,11,11a,11b,12,13,13a-octadecahydro-2H-cyclopenta[a]chrysen-9-yl)oxy)-2,2-dimethyl-4-oxobutanoic acid]",EC50,[1],14.7 nM
"CC(=O)O[C@H](CNCc1ccc(F)cc1)[C@@]12CC[C@]3(C)[C@H](CC[C@@H]4[C@@]5(C)CC[C@H](OC(=O)CC(C)(C)C(=O)O)C(C)(C)[C@@H]5CC[C@]43C)C1=C(C(C)C)C(=O)C2 [Example 26, 4-(((3aR,5aR,5bR,7aR,9S,11aR,11bR,13aS)-3a-((S)-1-Acetoxy-2-((4-fluorobenzyl)amino)ethyl)-1-isopropyl-5a,5b,8,8,11a-pentamethyl-2-oxo-3,3a,4,5,5a,5b,6,7,7a,8,9,10,11,11a,11b,12,13,13a-octadecahydro-2H-cyclopenta[a]chrysen-9-yl)oxy)-2,2-dimethyl-4-oxobutanoic acid]",EC50,[1],4.9 nM
"CC(=O)O[C@@H](CNCc1ccc(F)cc1)[C@@]12CC[C@]3(C)[C@H](CC[C@@H]4[C@@]5(C)CC[C@H](OC(=O)CC(C)(C)C(=O)O)C(C)(C)[C@@H]5CC[C@]43C)C1=C(C(C)C)C(=O)C2 [Example 27, 4-(((3aR,5aR,5bR,7aR,9S,11aR,11bR,13aS)-3a-((R)-1-acetoxy-2-((4-fluorobenzyl)amino)ethyl)-1-isopropyl-5a,5b,8,8,11a-pentamethyl-2-oxo-3,3a,4,5,5a,5b,6,7,7a,8,9,10,11,11a,11b,12,13,13a-octadecahydro-2H-cyclopenta[a]chrysen-9-yl)oxy)-2,2-dimethyl-4-oxobutanoic acid]",EC50,[1],8.2 nM
"CC(C)C1=C2[C@H]3CC[C@@H]4[C@@]5(C)CC[C@H](OC(=O)CC(C)(C)C(=O)O)C(C)(C)[C@@H]5CC[C@@]4(C)[C@]3(C)CC[C@@]2([C@H](O)CN(C)Cc2ccc(Cl)cc2)CC1=O [Example 29, 4-(((3aR,5aR,5bR,7aR,9S,11aR,11bR,13aS)-3a-((S)-2-((4-Chlorobenzyl)(methyl)amino)-1-hydroxyethyl)-1-isopropyl-5a,5b,8,8,11a-pentamethyl-2-oxo-3,3a,4,5,5a,5b,6,7,7a,8,9,10,11,11a,11b,12,13,13a-octadecahydro-2H-cyclopenta[a]chrysen-9-yl)oxy)-2,2-dimethyl-4-oxobutanoic acid]",EC50,[1],17.5 nM
"CC(C)C1=C2[C@H]3CC[C@@H]4[C@@]5(C)CC[C@H](OC(=O)CC(C)(C)C(=O)O)C(C)(C)[C@@H]5CC[C@@]4(C)[C@]3(C)CC[C@@]2([C@@H](O)CN(C)Cc2ccc(Cl)cc2)CC1=O [Example 31, 4-(((3aR,5aR,5bR,7aR,9S,11aR,11bR,13aS)-3a-((R)-2-((4-Chlorobenzyl)(methyl)amino)-1-hydroxyethyl)-1-isopropyl-5a,5b,8,8,11a-pentamethyl-2-oxo-3,3a,4,5,5a,5b,6,7,7a,8,9,10,11,11a,11b,12,13,13a-octadecahydro-2H-cyclopenta[a]chrysen-9-yl)oxy)-2,2-dimethyl-4-oxobutanoic acid]",EC50,[1],5.4 nM
"CC(=O)N(Cc1ccc(Cl)cc1)C[C@@H](O)[C@@]12CC[C@]3(C)[C@H](CC[C@@H]4[C@@]5(C)CC[C@H](OC(=O)CC(C)(C)C(=O)O)C(C)(C)[C@@H]5CC[C@]43C)C1=C(C(C)C)C(=O)C2 [Example 33, 4-(((3aR,5aR,5bR,7aR,9S,11aR,11bR,13aS)-3a-((S)-2-(N-(4-Chlorobenzyl)acetamido)-1-hydroxyethyl)-1-isopropyl-5a,5b,8,8,11a-pentamethyl-2-oxo-3,3a,4,5,5a,5b,6,7,7a,8,9,10,11,11a,11b,12,13,13a-octadecahydro-2H-cyclopenta[a]chrysen-9-yl)oxy)-2,2-dimethyl-4-oxobutanoic acid]",EC50,[1],5.3 nM
"CC(=O)N(Cc1ccc(Cl)cc1)C[C@H](O)[C@@]12CC[C@]3(C)[C@H](CC[C@@H]4[C@@]5(C)CC[C@H](OC(=O)CC(C)(C)C(=O)O)C(C)(C)[C@@H]5CC[C@]43C)C1=C(C(C)C)C(=O)C2 [Example 34, 4-(((3aR,5aR,5bR,7aR,9S,11aR,11bR,13aS)-3a-((R)-2-(N-(4-Chlorobenzyl)acetamido)-1-hydroxyethyl)-1-isopropyl-5a,5b,8,8,11a-pentamethyl-2-oxo-3,3a,4,5,5a,5b,6,7,7a,8,9,10,11,11a,11b,12,13,13a-octadecahydro-2H-cyclopenta[a]chrysen-9-yl)oxy)-2,2-dimethyl-4-oxobutanoic acid]",EC50,[1],7.1 nM
"CC(=O)N(Cc1ccccc1Cl)C[C@@H](O)[C@@]12CC[C@]3(C)[C@H](CC[C@@H]4[C@@]5(C)CC[C@H](OC(=O)CC(C)(C)C(=O)O)C(C)(C)[C@@H]5CC[C@]43C)C1=C(C(C)C)C(=O)C2 [Example 35, 4-(((3aR,5aR,5bR,7aR,9S,11aR,11bR,13aS)-3a-((S)-2-(N-(2-Chlorobenzyl)acetamido)-1-hydroxyethyl)-1-isopropyl-5a,5b,8,8,11a-pentamethyl-2-oxo-3,3a,4,5,5a,5b,6,7,7a,8,9,10,11,11a,11b,12,13,13a-octadecahydro-2H-cyclopenta[a]chrysen-9-yl)oxy)-2,2-dimethyl-4-oxobutanoic acid]",EC50,[1],4.2 nM
"CC(=O)O[C@H](CN(CCN(C)C)Cc1ccccc1Cl)[C@@]12CC[C@]3(C)[C@H](CC[C@@H]4[C@@]5(C)CC[C@H](OC(=O)CC(C)(C)C(=O)O)C(C)(C)[C@@H]5CC[C@]43C)C1=C(C(C)C)C(=O)C2 [Example 36, 4-(((3aR,5aR,5bR,7aR,9S,11aR,11bR,13aS)-3a-((S)-1-Acetoxy-2-((2-chlorobenzyl)(2-(dimethylamino)ethyl)amino)ethyl)-1-isopropyl-5a,5b,8,8,11a-pentamethyl-2-oxo-3,3a,4,5,5a,5b,6,7,7a,8,9,10,11,11a,11b,12,13,13a-octadecahydro-2H-cyclopenta[a]chrysen-9-yl)oxy)-2,2-dimethyl-4-oxobutanoic acid]",EC50,[1],4 nM
"CC(=O)O[C@H](CNCc1cccc(Cl)c1)[C@@]12CC[C@]3(C)[C@H](CC[C@@H]4[C@@]5(C)CC[C@H](OC(=O)CC(C)(C)C(=O)O)C(C)(C)[C@@H]5CC[C@]43C)C1=C(C(C)C)C(=O)C2 [Example 39, 4-(((3aR,5aR,5bR,7aR,9S,11aR,11bR,13aS)-3a-((S)-1-Acetoxy-2-((3-chlorobenzyl)amino)ethyl)-1-isopropyl-5a,5b,8,8,11a-pentamethyl-2-oxo-3,3a,4,5,5a,5b,6,7,7a,8,9,10,11,11a,11b,12,13,13a-octadecahydro-2H-cyclopenta[a]chrysen-9-yl)oxy)-2,2-dimethyl-4-oxobutanoic acid]",EC50,[2],6.6 nM
"CC(=O)O[C@@H](CNCc1cccc(Cl)c1)[C@@]12CC[C@]3(C)[C@H](CC[C@@H]4[C@@]5(C)CC[C@H](OC(=O)CC(C)(C)C(=O)O)C(C)(C)[C@@H]5CC[C@]43C)C1=C(C(C)C)C(=O)C2 [Example 40, 4-(((3aR,5aR,5bR,7aR,9S,11aR,11bR,13aS)-3a-((R)-1-Acetoxy-2-((3-chlorobenzyl)amino)ethyl)-1-isopropyl-5a,5b,8,8,11a-pentamethyl-2-oxo-3,3a,4,5,5a,5b,6,7,7a,8,9,10,11,11a,11b,12,13,13a-octadecahydro-2H-cyclopenta[a]chrysen-9-yl)oxy)-2,2-dimethyl-4-oxobutanoic acid]",EC50,[2],11.1 nM
"CC(C)C1=C2[C@H]3CC[C@@H]4[C@@]5(C)CC[C@H](OC(=O)CC(C)(C)C(=O)O)C(C)(C)[C@@H]5CC[C@@]4(C)[C@]3(C)CC[C@@]2([C@H](O)CN(CCN(C)C)Cc2cccc(Cl)c2)CC1=O [Example 44, 4-(((3aR,5aR,5bR,7aR,9S,11aR,11bR,13aS)-3a-((S)-2-((3-Chlorobenzyl)(2-(dimethylamino)ethyl)amino)-1-hydroxyethyl)-1-isopropyl-5a,5b,8,8,11a-pentamethyl-2-oxo-3,3a,4,5,5a,5b,6,7,7a,8,9,10,11,11a,11b,12,13,13a-octadecahydro-2H-cyclopenta[a]chrysen-9-yl)oxy)-2,2-dimethyl-4-oxobutanoic acid]",EC50,[1],1.8 nM
"CC(C)C1=C2[C@H]3CC[C@@H]4[C@@]5(C)CC[C@H](OC(=O)CC(C)(C)C(=O)O)C(C)(C)[C@@H]5CC[C@@]4(C)[C@]3(C)CC[C@@]2([C@@H](O)CN(CCN(C)C)Cc2cccc(Cl)c2)CC1=O [Example 45, 4-(((3aR,5aR,5bR,7aR,9S,11aR,11bR,13aS)-3a-((R)-2-((3-Chlorobenzyl)(2-(dimethylamino)ethyl)amino)-1-hydroxyethyl)-1-isopropyl-5a,5b,8,8,11a-pentamethyl-2-oxo-3,3a,4,5,5a,5b,6,7,7a,8,9,10,11,11a,11b,12,13,13a-octadecahydro-2H-cyclopenta[a]chrysen-9-yl)oxy)-2,2-dimethyl-4-oxobutanoic acid]",EC50,[1],1.9 nM
